Results reported in patent EP0284202A1, “Substituted hydantoin compounds” (THE WELLCOME FOUNDATION LIMITED, priority 1987, dated 1988).

How the values were obtained:
[1] = target: T1, PGD₂ receptor on the human platelet (Homo sapiens, UniProt Q13258); assay: Inhibition of ADP-induced aggregation in washed human platelets: antagonism of PGD₂ and compound A, Schild analysis; assay type: cell-based
T1 construct: endogenous in cells; host or cells: washed human platelets
T1 sequence (Q13258 1-359): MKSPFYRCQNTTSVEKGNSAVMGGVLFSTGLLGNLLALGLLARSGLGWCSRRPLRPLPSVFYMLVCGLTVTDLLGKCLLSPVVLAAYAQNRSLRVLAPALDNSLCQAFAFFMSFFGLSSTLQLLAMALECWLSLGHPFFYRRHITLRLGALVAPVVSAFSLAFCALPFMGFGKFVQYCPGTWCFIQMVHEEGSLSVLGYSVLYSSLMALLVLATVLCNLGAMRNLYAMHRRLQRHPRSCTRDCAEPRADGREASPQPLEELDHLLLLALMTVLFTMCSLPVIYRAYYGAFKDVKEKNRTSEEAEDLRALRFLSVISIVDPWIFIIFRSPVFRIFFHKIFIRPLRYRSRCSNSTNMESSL
Description: Washed platelet suspensions were prepared according to a modified version of the method of Vargas et al (Prostaglandins (1982) 23, 929). The suspension was then stored at 4°C for 2 hours and, before use, the following additions were made: Ca⁺⁺ʼ […], indomethacin, 5mcg ml⁻¹; and fibrinogen, 400 mcg ml⁻¹. Aggregation responses were measured using 0.5ml aliquots of the suspension maintained at 37°C and stirred with a metal bar at 900 r.p.m. in 300 BD-S Payton dual channel aggregometers and recorded on Gould BS 272 pen recorders.
Inhibition of platelet aggregation by PGD₂ and compound A were studied as follows. The prostaglandin receptor agonists were incubated in the platelet suspension for 6 minutes prior to adding ADP (5 × 10⁻⁵M). The reproducibility of the ADP-induced aggregation response was checked at intervals throughout the experiment. Antagonists were added 2 minutes before the agonist. Responses were expressed as percent inhibitions of the standard ADP-induced aggregation.
(§1) Measurement of antagonist affinity (pKB) was by Schild analysis.

rabbit jugular vein = assay: Rabbit jugular vein relaxation: antagonism of PGD₂ and compound A; settings: potency compared with the antagonism in platelet aggregation
Description: Vascular smooth muscle relaxation in response to PGD₂ and compound A was measured as changes in isometric force. Isolated ring segments of rabbit jugular vein suspended in Kreb's buffer, gassed with 95% O₂/5% CO₂ and maintained at 37°C, were treated with: indomethacin, 1 µg ml⁻¹, and the stable thromboxane receptor antagonist BM13177 (Patscheke et al, Biomed. Biochem. Acta (1984) 43, 5321), 30µM. The experiments followed a paired curve design.
Initially, the jugular vein ring segments were subjected to a force of 0.75g, then allowed to stabilize for a period of 60 minutes during which time the preparations were washed three times. Subsequently histamine (10⁻⁶M) was added to produce tone. After establishing a stable contraction, relaxation/concentration effect curves were obtained using prostaglandin receptor agonists. Responses were expressed as per cent relaxations of the histamine-induced force. The preparations were then washed thoroughly and allowed to re-stabilise. The antagonists were then incubated for 60 minutes prior to constriction with histamine (10⁻⁶M), followed by a second determination of the prostaglandin agonist concentration effect curve.
as §1

[2] = test system: prostaglandin receptors other than DP; assay: Actions at other prostaglandin receptors (selectivity); settings: actions not observed up to this multiple

With O=C(O)CCCCCCC1C(=O)N(Cc2ccccc2)C(=O)N1NCC(O)C1CCCCC1 (centres unmarked) [Example 3, 3-Benzyl-5-(6-carboxylhexyl)-1-(2-hydroxy-2-cyclohexylethylamino) hydantoin] the Kb ([1]; antagonist affinity by Schild analysis, shifts of anti-aggregatory concentration effect curves for PGD₂ and compound A, human washed platelets) was 550 pM, the Schild plot slope ([1]; anti-aggregatory concentration effect curves for PGD₂ and compound A, human washed platelets) was “unity” and the “behaviour at the PGD₂ receptor on the human platelet” value ([1]; human washed platelet assay, agonists PGD₂ and compound A) was “simple competitive antagonist”. The “antagonism of the relaxation effects of PGD₂ and compound A” value (rabbit jugular vein) was “antagonised with similar potencies” and the “concentrations without actions at prostaglandin receptors other than DP, relative to that required for DP receptor affinity” value [2] was over 1000 ×.
